Test [1] concerns 3D7 strain of Plasmodium falciparum. Nature of the test: Potency in the 3D7 strain of Plasmodium falciparum (EC50). The test is classed as cell-based. The following applies: Plasmodium falciparum, 3D7, read-out: 3D7 Mean EC50 (μM). From the text:
The present invention relates to methods of treating malaria with tetrahydrobenzonaphtyridine carboxanilide (TBN) derivatives and related pyrrolinones and hydrolysis products thereof. These compounds are active against Plasmodium falciparum strains that are resistant to multiple drugs currently on the market. The present invention further relates to novel compounds and pharmaceutical compositions comprising such compounds. The compounds have been synthesized and tested for their potency in the 3D7 strain of Plasmodium falciparum. Their cytotoxicity was also tested in the BJ human fibroblast line. No compounds show significant cytotoxicity.
(§1) A high-throughput screen performed against the Plasmodium parasite. About 8,000 compounds were screened. Each hit was tested against resistant P. falciparum variants K1, V1S, D10DD, ATP4 1247, and C2B. Potency against these assays assured that the chemotype acts through a mechanism distinct from that of halofantrine, chloroquine, mefloquine, pyrimethamine, proguanil, atovaquone, and (+)SJ733. The toxicity of the compounds was also measured by testing their lethality against a BJ cell line (human fibroblasts). No TBNs were toxic. A structure activity investigation was performed in order to improve the EC50 of the TBNs to the single-digit nanomolar range, as well as to increase the water solubility.
(§2) Substituents were installed at N−2 by using a variety of methods. Reductive alkylation (Abdel-Magid, A. F.; Mehrman, S. J. A Review on the Use of Sodium Triacetoxyborohydride in the Reductive Amination of Ketones and Aldehydes. Org. Process Res. Dev. 2006, 10 (5), 971-1031) was a dependable technique that produced over fifteen analogues. Conjugate additions and nucleophilic substitutions provided most of the others. A type of reductive alkylation that uses carboxylic acids instead of aldehydes (the Beller reduction) led to two analogues (Sorribes, I.; Junge, K.; Beller, M. Direct Catalytic N-Alkylation of Amines with Carboxylic Acids. J. Am. Chem. Soc. 2014, 136 (40), 14314-14319. Some of the compounds listed were synthesized through other means, or were derived from other TBNs. Compounds 66 and 128 were produced by the amidation of acids 132 and 133, which had the corresponding substitution already installed. TBNs 93, and 94 were produced from the Pfitzinger products formed from the condensation of isatin with (R)-1-(1-phenylethyl)piperidin-4-one (134) and (S)-1-(1-phenylethyl)piperidin-4-one (135), respectively.

Test [2] relates to resistant P. falciparum variant K1. The experiment in a line: Potency against resistant P. falciparum variant K1 (EC50). In kind it is cell-based. The following applies: Plasmodium falciparum, K1, read-out: K1 EC50 (μM). The procedure:
as §1, §2

As for `O=C(Nc1ccc(F)c(F)c1)c1c2c(nc3ccccc13)CCN(CC1CC1)C2` [Compound 101, 2-(Cyclopropylmethyl)-N-(3,4-difluorophenyl)-1,2,3,4-tetrahydrobenzo[b][1,6]naphthyridine-10-carboxamide], the EC50 (as a rule, the concentration at which the effect is half-maximal) was 0.429 ± 0.303 µM in test [1] and 0.272 µM in test [2].
On to `O=C(Nc1ccc(F)c(F)c1)c1c2c(nc3ccccc13)CCN(CCOC1CCCCO1)C2` (stereo not drawn) [Compound 102, N-(3,4-Difluorophenyl)-2-(2-((tetrahydro-2H-pyran-2-yl)oxy)ethyl)-1,2,3,4-tetrahydrobenzo[b][1,6]naphthyridine-10-carboxamide], for which the results for the EC50 in test [1] and in test [2] were 0.441 ± 0.156 µM and 0.178 ± 0.0436 µM, respectively.
As to `CCOCCN1CCc2nc3ccccc3c(C(=O)Nc3ccc(F)c(F)c3)c2C1` [Compound 103, N-(3,4-Difluorophenyl)-2-(2-ethoxyethyl)-1,2,3,4-tetrahydrobenzo[b][1,6]naphthyridine-10-carboxamide], the EC50 in test [1] is 0.451 ± 0.416 µM; in test [2], 0.0391 µM.
For `CC(c1ncccn1)N1CCc2nc3ccccc3c(C(=O)Nc3ccc(F)c(F)c3)c2C1` (stereo not drawn) [Compound 104, N-(3,4-Difluorophenyl)-2-(1-(pyrimidin-2-yl)ethyl)-1,2,3,4-tetrahydrobenzo[b][1,6]naphthyridine-10-carboxamide], in that order: 0.453 ± 0.238 µM and 0.117 ± 0.0339 µM.
Taken in the same sequence, the figures for `O=C(Nc1ccc(F)c(F)c1)c1c2c(nc3ccccc13)CCN(Cc1ccccn1)C2` [Compound 105, N-(3,4-Difluorophenyl)-2-(pyridin-2-ylmethyl)-1,2,3,4-tetrahydrobenzo[b][1,6]naphthyridine-10-carboxamide] were 0.456 ± 0.0964 µM and 0.129 µM.
As to `O=C(Nc1ccc(F)c(F)c1)c1c2c(nc3ccccc13)CCN(Cc1cccnc1)C2` [Compound 106, N-(3,4-Difluorophenyl)-2-(pyridin-3-ylmethyl)-1,2,3,4-tetrahydrobenzo[b][1,6]naphthyridine-10-carboxamide], the EC50 came to 0.475 ± 0.163 µM in test [1] and 0.236 µM in test [2].
For `O=C(Nc1ccc(F)c(F)c1)c1c2c(nc3ccccc13)CCN(Cc1ccc(F)cc1)C2` [Compound 107, N-(3,4-Difluorophenyl)-2-(4-fluorobenzyl)-1,2,3,4-tetrahydrobenzo[b][1,6]naphthyridine-10-carboxamide], the EC50 came out at 0.569 µM in test [1] and 0.401 µM in test [2].
For `O=C(Nc1ccc(F)c(F)c1)c1c2c(nc3ccccc13)CCN(CCCC(F)(F)F)C2` [Compound 108, N-(3,4-Difluorophenyl)-2-(4,4,4-trifluorobutyl)-1,2,3,4-tetrahydrobenzo[b][1,6]naphthyridine-10-carboxamide], in that order: 0.665 ± 0.734 µM and 0.241 µM.
Turning to `O=C(Nc1ccc(F)c(F)c1)c1c2c(nc3ccccc13)CCN(Cc1ccncc1)C2` [Compound 111, N-(3,4-Difluorophenyl)-2-(pyridin-4-ylmethyl)-1,2,3,4-tetrahydrobenzo[b][1,6]naphthyridine-10-carboxamide], the EC50 in test [1] came out at 0.983 ± 0.133 µM; in test [2], 0.647 µM.
As to `Cc1nc(CN2CCc3nc4ccccc4c(C(=O)Nc4ccc(F)c(F)c4)c3C2)cs1` [Compound 112, N-(3,4-Difluorophenyl)-2-((2-methylthiazol-4-yl)methyl)-1,2,3,4-tetrahydrobenzo[b][1,6]naphthyridine-10-carboxamide], the EC50 in test [1] came to 1.03 ± 0.549 µM; in test [2], 0.641 µM.
For `CC(C)(O)CCN1CCc2nc3ccccc3c(C(=O)Nc3ccc(F)c(F)c3)c2C1` [Compound 116, N-(3,4-Difluorophenyl)-2-(3-hydroxy-3-methylbutyl)-1,2,3,4-tetrahydrobenzo[b][1,6]naphthyridine-10-carboxamide], in that order: 2.01 ± 0.277 µM and 1.44 ± 0.337 µM.
Taken in the same sequence, the figures for `O=C(Nc1ccc(F)c(F)c1)c1c2c(nc3ccccc13)CCN(CCO)C2` [Compound 120, N-(3,4-Difluorophenyl)-2-(2-hydroxyethyl)-1,2,3,4-tetrahydrobenzo[b][1,6]naphthyridine-10-carboxamide] were 3.84 ± 2.08 µM and 2.2 ± 0.268 µM.

These data come from patent US12370183B2, “Compositions and methods for treating malaria” (Rutgers, The State University of New Jersey, priority 2020, dated 2025).
